This passage reports TGI and GI50 results from PubChem BioAssay (NCI).

SMILES strings stand for the structures. “And” between values parts separate entries of the source, which are not always exact repeats. Equal entries are not always repeated.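 Exposure lasted 48 hours, with cells grown in 96-well plates and compounds tested at five concentrations. GI50: concentration for 50% inhibition of growth. TGI marks complete inhibition of growth.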

What all share (assay): NCI tumour cell line growth inhibition, 48 h
Experiment [1] has as its system SNB-78 CNS.
Experiment [2] relates to DLD-1 colon.
In experiment [3] the test system is RXF-631 renal.
Experiment [4] has as its system SN12K1 renal.
Experiment [5] relates to P388/ADR leukemia.
Experiment [6] deals with P388 leukemia.

On to `Cc1cc(C)nc(NS(=O)(=O)c2ccc(NC(=O)c3cccc4c(N)c5ccccc5nc34)cc2)n1`, for which the TGI in experiment [1] and in experiment [2] was over 100 µM in each case.

As for `CC1(C)N=C(Oc2ccccc2)n2nccc2N1`, in experiment [2], the TGI was over 100 µM.

`Cc1ccc(F)c2c(=O)cc(-c3ccccc3)[nH]c12` returned a TGI in experiment [2] of over 100 µM.

In the case of `CC#Cc1c(C#CC)c(OC)c2c(c1OC)C(=O)c1ccccc1C2=O`, the TGI in experiment [2] is over 100 µM.

For `CCN(CC)CCC(=O)O[C@H]1CC[C@H](CC(C)[C@H]2CC(=O)C(C)C=C(C)[C@H](OC(=O)CCN(CC)CC)C(OC)C(=O)[C@@H](C)CC(C)/C=C/C=C/C=C(C)C(OC)CC3CC[C@H](C)[C@](O)(O3)C(=O)C(=O)N3CCCCC3C(=O)O2)CC1OC` (some centres undefined), the TGI worked out at 1.7 µM in experiment [1] and 2.62 µM in experiment [2].

Turning to `CCCOP(=S)(N1CC1)N1CC1`, the TGI in experiment [1] and in experiment [2] was over 100 µM in each case.

Turning to `COc1nc(OC)nc(Sc2ccc(Sc3ccc(Sc4nc(OC)nc(OC)n4)cc3)cc2)n1`, the TGI in experiment [1] and in experiment [2] was over 100 µM in each case.

Regarding `O=C1Cc2ccccc2CCc2ccsc21`, the TGI in experiment [1] and in experiment [2] was over 100 µM throughout.

As to `Oc1ccc(Cn2c(-c3ccc(O)cc3)nc3ccccc32)cc1`, the TGI in experiment [3] and in experiment [2] was over 100 µM in each case.

With `Cc1cc(Cl)ccc1NC(=O)C(=O)Cc1occc(=O)c1O`, the TGI in experiment [3], in experiment [1] and in experiment [2] was over 100 µM in each case.

`CCCc1cc(-c2ccc(-c3cc(CCC)c(C=O)[nH]3)s2)[nH]c1C=O`: the TGI in experiment [1] and in experiment [2] was over 100 µM in each case.

In turn, `CC(=O)O/N=C/c1cc2c(cc1Br)OCO2` had a TGI in experiment [2] of over 349 µM.

Regarding `O=C1c2ccccc2C(=O)c2c(O)c(NCCNCCO)cc(O)c21`, the TGI worked out at 18.7 µM in experiment [1] and 11.1 µM in experiment [2].

For the compound `CC(C)c1cccc(C(C)C)c1NC(=O)C(=O)C1SC(=S)NC1=O` (centres undefined), the TGI in experiment [3], in experiment [1] and in experiment [2] was over 100 µM each time.

Take `C(=N/NC1=NCCN1)/c1c2ccccc2c(/C=N\NC2=NCCN2)c2ccccc12`: the GI50 in experiment [4] is 0.0688 µM; in experiment [1], 0.368 µM; in experiment [5] it was 86.6 µM; in experiment [6] it was 0.0561 µM; in experiment [2] it was 1.32 µM. In addition, the TGI in experiment [4] is 0.933 µM and 0.222 µM; in experiment [1], 3.83 µM and 9.8 µM; in experiment [5] it was 116 µM; in experiment [6], 0.571 µM and 1.08 µM; in experiment [2], 27.9 µM and 250 µM.

Compound `COc1ccc(/C=C(\Cl)c2ccc(OC)cc2)cc1` registered a TGI in experiment [2] of over 100 µM.

On to `Cc1nc2nn(C)cc2c(=O)n1/N=C/c1ccccc1`, for which the TGI in experiment [1] and in experiment [2] was over 100 µM throughout.
